Like-named read-outs stand apart in the source and are kept apart here.
Key:
[1] = tested on: DevS201 (cytoplasmic domain of DevS sensor kinase); assay: DevS201 autokinase (autophosphorylation) assay, high-throughput filtration format; format: biochemical, Mycobacterium tuberculosis; settings: for inhibition of DevS autokinase activity (in words): Pep peptides at 3 mM and 5 mM, preincubated with DevS201 (15 μM) 30 mins at 25°C, three independent experiments, poor reproducibility due to protein aggregation; for % Inhibition of autokinase activity: mean of three independent experiments, 0 = lack of inhibition
[2] = tested on: Rv3134c promoter (DevR-dependent); format: cell-based, Mycobacterium tuberculosis; settings: for % Inhibition of reporter activity, Rv3134c promoter: hypoxic, mean of two independent experiments; for inhibition of Rv3134c promoter activity: peptides at 2.5 and 5 mM, two independent experiments
[3] = tested on: sigA promoter (not regulated by DevR); format: cell-based, Mycobacterium tuberculosis; settings: for % Inhibition of reporter activity, sigA promoter: peptide 5 mM, 0 = no detectable inhibition
[4] = tested on: M. tuberculosis; format: cell-based, Mycobacterium tuberculosis; settings: aerobic cultures; with respect to the DMSO control; two independent experiments
[5] = tested on: M. tb H37Rv; assay: REMA, aerobic Resazurin reduction assay; format: cell-based, Mycobacterium tuberculosis; settings: 64 h at 37°C, Resazurin fluorescence, two independent experiments
[6] = tested on: DevS ~ P to DevR phosphotransfer; assay: In vitro phosphotransfer assay from DevS~P to DevR; format: biochemical, Mycobacterium tuberculosis; settings: data not shown
Description: To study the phosphotransfer reaction, DevS201 (15 μM final concentration) was phosphorylated for 60 mins as described above. Subsequently, full-length DevR or DevRN protein (1–144 amino acid residues, 20 μM final concentration) was added to the phosphorylated DevS201 mix, and the reaction was incubated at 25°C for 2 mins. The reaction was terminated with 10 μl of 2X stop buffer (100 mM Tris-Cl, pH 6.8, 20% glycerol, 2% SDS, 280 mM β-mercaptoethanol, 0.01% bromophenol blue) and the samples were resolved on SDS-PAGE. The gel was rinsed in water and subjected to autoradiography.

[7] = tested on: CHO (Chinese hamster ovary cells); format: cell-based; settings: MTT, 5 mM and 2.5 mM peptide, 48 h, relative to the DMSO vehicle control, duplicate values
Description: (§1) Figure 6 Cytotoxicity of peptides. Percentage cytotoxicity due to exposure to peptides was assessed in HepG2 and CHO cell lines using the MTT assay. The cells were exposed to DevRS A-ext and DevRS D peptides at 2.5 mM and 5 mM concentration in 96-well plate format for 48 h. Percentage cytotoxicity is shown with respect to the DMSO control as mean ± SD for duplicate values.
(§2) The cytotoxicity of DevRS1 peptide was assessed in CHO (Chinese hamster ovary cells) and HepG2 (human liver hepatocellular carcinoma) cell lines. Both the cell lines were maintained in DMEM supplemented with 10% FBS at 37°C in 5% CO2. Approximately, 10^4 cells were seeded per well in a 96-well plate and incubated at 37 °C for 12–16 h. The peptides were diluted in 125 μl DMEM and added onto cells (final volume 250 μl per well, 2.5 and 5 mM final peptide concentrations), and the plate was incubated at 37°C in 5% CO2 for 48 h. Subsequently, 20 μl of MTT (Sigma 5 μg μl^-1) was added and incubated for 4–5 h at 37°C. Following incubation, media was discarded and the formazan crystals were solubilized by adding 200 μl DMSO and the absorbance measured at A560 nm. The percentage toxicity was calculated as: […]

[8] = tested on: HepG2 (human liver hepatocellular carcinoma); format: cell-based; settings: HepG2 cells; MTT; 5 mM and 2.5 mM peptide; 48 h; relative to the DMSO vehicle control; duplicate values
Description: as §1, §2

## HNTRGEE [Pep A]
[1]; then ATP 1 h
  inhibition of DevS autokinase activity (in words): inhibit DevS autokinase activity to varying degrees

## ITNPDPY [Pep D]
[1]; then ATP 1 h
  inhibition of DevS autokinase activity (in words): inhibit DevS autokinase activity to varying degrees

## KDIKGME [DevRS A, DevR mimetic peptide KDIKGME]
[2]; peptide 2.5 mM
  % Inhibition of reporter activity, Rv3134c promoter: 30%
[2]; peptide 5 mM
  % Inhibition of reporter activity, Rv3134c promoter: ~ 45%
[3]; aerobic
  % Inhibition of reporter activity, sigA promoter: 6%
[3]; hypoxic
  % Inhibition of reporter activity, sigA promoter: ~ 14%

## SLFRDWP [Pep C]
[1]; Pep peptide 5 mM
  % Inhibition of autokinase activity: 0%
[1]; then ATP 1 h
  inhibition of DevS autokinase activity (in words): did not inhibit autokinase activity at any of the concentrations tested
[1]; peptide 3 mM
  % Inhibition of autokinase activity: 0%

## TFESYSL [Pep B]
[1]; then ATP 1 h
  inhibition of DevS autokinase activity (in words): inhibit DevS autokinase activity to varying degrees

## VRLPD [DevRS D, DevR mimetic peptide VRLPD]
[1]; DevRS peptide 5 mM, preincubated with DevS201 30 mins at 25°C, then ATP 1 h, mean of two independent experiments
  inhibition of DevS autokinase activity: 37%
[2]; […]
  inhibition of Rv3134c promoter activity: 20-30%
[2]; hypoxic conditions
  inhibition of Rv3134c promoter activity: ~40%
[3]
  inhibition of sigA promoter activity (in words): did not inhibit sigA promoter activity
[4]
  CFU: % Inhibition of Viability: ≤ 10%
[5]
  inhibition of viability, REMA: ≤ 15%
[6]
  inhibition of phosphosignal transfer from DevS ~ P to DevR (in words): neither DevRS A-ext nor DevRS D inhibited this reaction
[7]
  Percentage cytotoxicity: 20-40%
[8]
  Percentage cytotoxicity: 20-40%

Source: PMC4110071, “DevR (DosR) mimetic peptides impair transcriptional regulation and survival of Mycobacterium tuberculosis under hypoxia by inhibiting the autokinase activity of DevS sensor kinase” (BMC Microbiology, 2014)
